The source of these data is publication PMC6514664, “Six New Coumarin Glycosides from the Aerial Parts of Gendarussa vulgaris” (Molecules, 2019).

The subject of one data set is HepG2 cell line. The experiment in a line: MTT cytotoxicity assay, HepG2 cell line. It is filed as cell-based, Human. The following applies: HepG2 hepatocellular cancer cell line, etoposide positive control. On the procedure:
(§1) The cytotoxic activities of all isolated compounds were evaluated by MTT assay.
(§2) According to the previous procedure, all isolated compounds were evaluated for cytotoxic activities against Eca-109, MCF-7, and HepG2 cell lines, as well as a normal human umbilical vein endothelial cell line (HUVEC) (Table 3). Etoposide was used as the positive control.
(§3) The UV spectra were measured on a Shimadzu UV-1700 spectrometer (Shimadzu Corporation, Kyoto, Japan). The IR spectra were measured on a Nicolet 10 Microscope Spectrometer (Thermo Scientific, San Jose, CA, USA). The 1D and 2D NMR spectra were recorded on Bruker-AC (E)-500 spectrometer (Bruker AM 500, Fällanden, Switzerland) using TMS as an internal standard. The HR-ESI-MS was determined on a Bruker microTOF-Q instrument (Bruker BioSpin, Rheinstetten, Germany). Column chromatography was performed with silica gel (200–300 mesh; Qingdao Marine Chemical Inc., Qingdao, China), sephadex LH-20 (GE Healthcare), ODS (50 µm; YMC Co. LTD., Kyoto, Japan.), AB-8 macroporous resin (Qinshi Science and Technology Ltd., Zhengzhou, China). Thin layer chromatography (TLC) was carried out on silica gel GF254 precoated plates (Qingdao Marine Chemical Inc., Qingdao, China), and spots were visualized under UV light. Preparative HPLC separations were performed on a SEP system (Beijing Sepuruisi scientific Co., Ltd., China) equipped with a variable-wavelength UV detector, using a YMC-Pack ODS-A column (250 × 20 mm, 5 μm). Chemical reagents for isolation were of analytical grade and purchased from Tianjin Siyou Co., Ltd., China. Biological reagents were from Sigma Company. Human heptocellular (HepG2), esophageal (Eca-109), and breast (MCF-7) cancer cell lines were from Institute of Materia Medica, Chinese Academy of Medical Sciences and Peking Union Medical College, China.
In general terms: Tetrazolium dyes change colour on reduction, which living cells bring about.

In a further data set the test system is Eca-109 cell line. Description: MTT cytotoxicity assay, Eca-109 cell line. The data set is classed as cell-based, Human. The following applies: Eca-109 esophageal cancer cell line, etoposide positive control. On the procedure: as §1, §2, §3
A further data set concerns MCF-7 cell line. The experiment in a line: MTT cytotoxicity assay, MCF-7 cell line. It is filed as cell-based, Human. The conditions noted are these: etoposide positive control. On the procedure: as §1, §2, §3
For data set [1], the system named is normal human umbilical vein endothelial cell line (HUVEC). Description: MTT cytotoxicity assay, normal HUVEC cell line. It is filed as cell-based.
Protocol: (§4) According to the previous procedure [22], all isolated compounds were evaluated for cytotoxic activities against Eca-109, MCF-7, and HepG2 cell lines, as well as a normal human umbilical vein endothelial cell line (HUVEC) (Table 3). Etoposide was used as the positive control.
Data set [2] in a line: MTT cytotoxicity assay, normal HUVEC cell line. It is filed as cell-based. The following applies: HUVEC (normal human umbilical vein endothelial cells).
Protocol: as §4
The mark [3] stands for this setting: Homo sapiens, MCF7, MCF-7 breast cancer cell line.

Where only a bound is given, the exact number is not on record here.

One may read the IC50 as the midpoint of a concentration-inhibition curve. Low readings indicate inhibition by little substance, high ones a need for much substance. For cleomiscosin A [Compound 11], the IC50 in the data set on HepG2 cell line was 43.7 ± 3.97 µM; in the data set on Eca-109 cell line, 21 ± 1.85 µM; in the data set on MCF-7 cell line (MCF-7 breast cancer cell line), 35.3 ± 2.61 µM; in data set [1], more than 100 µM.

Take `COc1cc2ccc(=O)oc2c(O)c1OC` [Compound 14, fraxidin]: the IC50 is more than 100 µM in the data set with HepG2 cell line (Homo sapiens), 41.1 ± 3.78 µM in the data set on Eca-109 cell line (Homo sapiens), 59.6 ± 5.24 µM in the data set with MCF-7 cell line (setting [3]) and more than 100 µM in data set [2].

Regarding `COc1cc2ccc(=O)oc2cc1O` [Compound 13, scopoletin], the IC50 in the data set with HepG2 cell line (Homo sapiens) was 53.7 ± 4.09 µM; in the data set with Eca-109 cell line (Homo sapiens), 45.7 ± 3.55 µM; in the data set on MCF-7 cell line (setting [3]) it was 61.6 ± 5.7 µM; in data set [2], more than 100 µM.

For `COc1cc([C@@H]2c3cc4c(cc3[C@@H](O[C@@H]3O[C@@H]5CO[C@@H](C)O[C@H]5[C@H](O)[C@H]3O)[C@H]3COC(=O)[C@H]23)OCO4)cc(OC)c1O` [etoposide, reference compound], the 50% inhibitory concentration (IC50) came out at 1.15 ± 0.09 µM in the data set on HepG2 cell line (Homo sapiens), 20.5 ± 1.82 µM in the data set on Eca-109 cell line (Homo sapiens) and 5.82 ± 0.49 µM in the data set on MCF-7 cell line (setting [3]).

With `COc1cc2ccc(=O)oc2c(O)c1O` [Compound 12, fraxetin], the IC50 with HepG2 cell line (Homo sapiens) is 30.3 ± 1.18 µM; with Eca-109 cell line (Homo sapiens), 20.4 ± 1.94 µM; in the data set on MCF-7 cell line (setting [3]), 28.6 ± 1.37 µM; in data set [2], more than 100 µM.

Turning to `COc1cc2ccc(=O)oc2c(O[C@@H]2O[C@H](CO)[C@@H](O)[C@H](O)[C@H]2O)c1O[C@@H]1O[C@H](CO)[C@@H](O)[C@H](O)[C@H]1O` [Compound 6, 7,8-bis(β-D-glucopyranosyloxy)-6-methoxycoumarin], the IC50 in the data set with HepG2 cell line (Homo sapiens), in the data set with Eca-109 cell line (Homo sapiens) and in the data set on MCF-7 cell line (setting [3]) was more than 100 µM in each case.

Consider `COc1cc2ccc(=O)oc2cc1OC` [Compound 16, scoparone], for which the IC50 with HepG2 cell line (Homo sapiens), in the data set with Eca-109 cell line (Homo sapiens) and in the data set on MCF-7 cell line (setting [3]) was more than 100 µM in each case.

Regarding `COc1cc2ccc(=O)oc2cc1O[C@@H]1O[C@H](CO)[C@@H](O)[C@H](O[C@@H]2O[C@H](CO)[C@@H](O)[C@H](O)[C@H]2O)[C@H]1O` [Compound 3, 7-[(3-O-β-D-glucopyranosyl-β-D-glucopyranosyl)oxy]-6-methoxycoumarin], the IC50 in the data set on HepG2 cell line (Homo sapiens), in the data set on Eca-109 cell line (Homo sapiens) and with MCF-7 cell line (setting [3]) was more than 100 µM throughout.
